Reference: patent US20070072209A1, “Methods of treatment and diagnosis of Kaposi's sarcoma (KS) and KS related diseases” (priority 2005, published 2007)

Key:
KSHV-infected DMVEC [1] = assay: XTT proliferation assay of PMO-loaded KSHV-infected DMVEC (Example 3); format: cell-based, human; conditions: PMO antisense silencing
Description: Proliferation assays, and loading of cells with PMOs. Proliferation of KSHV-infected DMVEC was quantified using an XTT (2,3-bis-(2-methoxy-4-nitro-5-sulfophenyl)-2H-tetrazolium-5-carboxanilide, disodium salt)-based assay. KSHV-infected cells were added to Primaria 96-well trays (Becton Dickinson) at 1×10^4 or 5×10^4 cells/well. XTT (Roche, Molecular Biochemicals, Indianapolis, Ind.) was added 48 hours later according to the manufacturer's instructions. Absorbance was read after 4 to 6 hours on a microplate reader.
Briefly, cells were plated in 96-well trays at a density approaching confluence (5×10^4 cells per well) in 100 μl of complete medium. PMOs were loaded the following day in a total of 100 μl (0.5 μl PMO, 0.5 μl EPEI, 49 μl H2O and 50 μl serum free medium) with reagent mixing as described by the manufacturer (GeneTools). Controls included a FITC PMO control oligonucleotide, EPEI only or H2O only. Each variable was performed in quadruplicate. Fresh complete medium was replaced 4 hours after loading. Cells were cultured for 4 days to allow for multi-layered cell growth post-confluence in the absence of any growth inhibition. XTT was added on day 4 of culture and the absorbance read 4 hrs later on a microplate reader. Cell proliferation (growth) values are given as percentage inhibition values, relative to cells without PMO, which are adjusted to 100%.

KSHV = assay: Immunofluorescent staining for latent (LANA-1/ORF73) and early lytic (ORF59) viral proteins after PMO-AS; format: cell-based; conditions: PMO-AS-treated KSHV-infected DMVEC
From the text: KSHV-infected DMVEC. DMVECs were used as an in vitro model for examining cancerous transformation and viral replication, based, inter alia, on that fact that neoplastic cells in KS tumors are predominantly of vascular origin, whereas KSHV is primarily found in cells of endothelial origin. Specifically, a previously described DMVEC system (Moses et al., J. Virol. 73:6892-6902, 1999) was used for studying infection and transformation by KSHV. Briefly, DMVEC's were immortalized with the E6/E7 genes of human papillomavirus (HPV)-16 prior to infection with KSHV. […] KSHV was obtained from the supernatant of KSHV-infected B-cell lines (e.g., TPA-stimulated BCBL-1 cells). Infection was verified by DNA PCR for amplification of the KS330 BamH1 fragment of the ORF 26 gene, and RT-PCR for the spliced mRNA from the ORF29 gene. The percentage of latently infected cells was determined by immunofluorescent staining for LANA/ORF73. Lytic induction was evaluated with antibodies against an early lytic protein ORF59/PF-8 and a late lytic glycoprotein ORF K8.1A/B. DMVEC were used for experiments when 90% of cells expressed ORF73. In the absence of chemical induction, 2-5% of infected cells expressed ORF59 with approximately 10% of the ORF59-positive cells expressing K8.1A/B. Lytic replication can be induced, however, using phorbol esters such as […] (PMA) providing the ability to look for host genes involved in, or modulated by the lytic cycle as well.
To ascertain whether PMO-AS treatment could be indirectly influencing cell phenotype through an effect on KSHV lytic replication, cells treated with PMO-AS against c-Kit, RDC1 and Neuritin were evaluated by immunofluorescent staining for expression of latent (LANA-1/ORF73) and early lytic (ORF59) viral proteins as previously described (Moses, 1999).

KSHV-infected DMVEC [2] = assay: PMO antisense inhibition of KSHV-induced spindle cell and foci formation (Example 3); format: cell-based, human; conditions: for Extent of PMO-induced Inhibition of Spindle Cell Formation: KSHV-infected DMVEC loaded with gene-specific PMO antisense + EPEI; for Phenotype Inhibition (inhibition of spindle cell formation) / KSHV-induced spindle cell / foci formation (in words): KSHV-infected DMVEC; for Phenotype Inhibition (inhibition of spindle cell formation): gene-specific PMO antisense; for KSHV-induced spindle cell / foci formation (in words): PMO antisense, c-Kit: 1.25 nmol PMO + 2.5 μl EPEI per 35 mm dish
From the text: Antisense Gene Silencing using PMOs. […] Silencing of such genes precluded progression into the transformed phenotype when silencing occurred prior to transformation, or induced reversion to the normal state when silencing occurred after induction of the transformed state (see TABLE 2 below).
Introduction of antisense PMO into KSHV-infected DMVEC. Antisense PMO molecules, for delivery purposes, are typically converted to a paired duplex together with a partially complementary cDNA oligonucleotide in the weakly basic delivery reagent ethoxylated polyethylenimine (EPEI) (Summerton, supra). The anionic complex binds to the cell surface, is taken up by endocytosis and eventually released into the cytosol. A protocol for optimum uptake of antisense PMO in immortalized DMVEC was developed using a modification of the EPEI method. Briefly, uninfected, immortalized DMVECs were incubated for 3 hours at 37° C. with 0.6 nmol/well FITC-PMO complexed with EPEI according to the manufacturer's instructions (GeneTools, LLC, One Summerton Way, Philomath, Oreg. 97370) (e.g., 1.25 nMol oligomer with 2.5 μl EPEI reagent per 35 mm dish, allowing for sufficient antisense uptake without non-specific EPEI-induced toxicity). The PMOs were labeled with FITC to allow for monitoring of loading efficiency by fluorescence microscopy.
Specifically, DMVEC were infected with KSHV, plated in 35 mm dishes and allowed to grow to about 90% confluence. For treatment, KSHV-infected cells were treated with the anti-c-Kit PMO-antisense oligomer-EPEI delivery reagent complex and incubated for 3 hours at 37° C. in serum-free medium to allow for oligomer uptake. A titration experiment testing a range of different oligomer/EPEI volumes was used to determine that loading 1.25 nmol oligomer with 2.5 μl EPEI reagent per 35 mm dish allowed efficient antisense uptake without non-specific EPEI-induced toxicity. Control (mock-treated) DMVEC cultures were loaded with EPEI reagent and sterile water or sterile water alone. Upon removal of the oligomer-EPEI solution, cell monolayers were rinsed in serum-free medium fed with complete medium and examined daily for one week by phase microscopy for evidence of phenotypic change.

Substance	inhibition of KSHV-induced cellular proliferation (in words) (KSHV-infected DMVEC [1])	expression of ORF73 (latent viral protein) (KSHV)	Extent of PMO-induced Inhibition of Spindle Cell Formation (KSHV-infected DMVEC [2])	Phenotype Inhibition (inhibition of spindle cell formation) (KSHV-infected DMVEC [2])	KSHV-induced spindle cell / foci formation (in words) (KSHV-infected DMVEC [2])	KSHV-induced spindle cell / foci formation (in words) (KSHV-infected DMVEC [2]; listed as c-Kit)
RDC-1: PMO antisense to RDC-1, GAAGAGATGCAGATCCATCGTTCTG (SEQ ID NO:15) (all phosphorodiamidate morpholino (PMO); delivered paired with partially complementary DNA oligo (Special Delivery))	substantial inhibition	maintained expression of ORF73	full	full and Full	fully reversed spindle cell formation	–
KIT: FITC-labeled PMO targeting the start codon of c-Kit, CGCCTCTCATCGCGGTAGCTGCG (SEQ ID NO:21) (all phosphorodiamidate morpholino (PMO); FITC label attached, position not given here)	substantial inhibition	maintained expression of ORF73	full	Full	fully reversed spindle cell formation	did not develop foci
Neuritin: PMO antisense to Neuritin, TTAACTCCCATCCTACGTTTAGTCA (SEQ ID NO:19) (all phosphorodiamidate morpholino (PMO); delivered paired with partially complementary DNA oligo (Special Delivery))	substantial inhibition	maintained expression of ORF73	full	Full	fully reversed spindle cell formation	–
